Results reported in patent US11389539B2, “Hyaluronic acid derivatives into which cationic and hydrophobic groups are introduced” (CHUGAI SEIYAKU KABUSHIKI KAISHA, priority 2016, dated 2022).

Legend:
[1] = Assessment of intraocular migration of eye drops (fluorescent-labeled HA derivative, confocal microscope); assay type: in vivo; settings: mice, 3 μL eye drops to both eyes, 1 hour, frozen sections
Method: The 10k-HA-Chol-17%/ArgNH2-10%/EtOH-67%/FL synthesized in Example 2-26 was dissolved in 10% sucrose solution to a concentration of 50 mg/mL, and 3 μL of the resulting solution was applied to both eyes of mice. Both eyeballs were taken out after 1 hour and frozen sections were prepared. […] On the other hand, carboxyfluorescein was dissolved in 10% sucrose solution to a concentration of 0.0568 mg/mL, 3 μL of the resulting solution was applied to both eyes of mice, and an observation was performed as in the case of the 10k-HA-Chol-17%/ArgNH2-10%/EtOH-67%/FL. As a result, fluorescence from carboxyfluorescein was not observed in any tissues of the eyes including the cornea, conjunctiva and ciliary body.

[2] = system: ApoB mRNA; assay: Suppression of gene expression by HA derivatives containing nucleic acid (transfection of HepG2 cells, quantitative real-time PCR); assay type: cell-based, Human; settings: siRNA 200 nM, 24 hours
Method: ApoB (sense strand: [NT] ID No. 1, number of nucleotides: 21), antisense strand: 3'-[…] ID No. 2, number of nucleotides: 23)) was used as siRNA. First, an aqueous solution of 0.5 mg/mL siRNA and 0.1-M Hepes buffer were mixed, to which 6 mg/mL aqueous solutions of the HA derivatives obtained in Examples 2 and 4 were added to an N/P ratio of 10 or 20 and was pipetted to prepare agents containing nucleic acid (the final concentration of siRNA was 800 nM and the final concentration of Hepes was 10 mM). In order to assess suppression effects of the HA derivatives containing nucleic acid obtained in Example 8-1 on gene expression, a transfection experiment was performed to HepG2 cells. The sucrose solutions containing the HA derivatives containing nucleic acid were added to a 96-well plate. HepG2 cells suspended in DMEM supplemented with 10% FBS was added to 1×10^4 cells/well and cultured for 24 hours. The final concentration of siRNA in transfection was 200 nM. Total RNA was extracted and purified according to the manual using a QIAGEN RNeasy 96 kit. By using the RNA-to-Ct 1 Step kit manufactured by Thermo Fisher Scientific, quantitative real-time PCR was performed on the target ApoB mRNA and GAPDH mRNA as the housekeeping gene using the following primers according to the instruction manual. For the quantitative real-time PCR, Rotor-Gene Q manufactured by QIAGEN was used. […]

Substance | distribution in the conjunctiva and the ciliary body by fluorescence detection [1] | distribution in the cornea by fluorescence detection [1] | expression of ApoB [2]
carboxyfluorescein | not observed | not observed | 
siRNA alone: ApoB siRNA, sense strand SEQ ID No. 1 (21 nucleotides), antisense strand SEQ ID No. 2 (23 nucleotides) (sense GUCAUCACACUGAAUACCAAU; antisense AUUGGUAUUCAGUGUGAUGACAC; listed as RNA, chemistry not given here) |  |  | does not have an effect of suppressing gene expression
